Experimental findings from patent US20220288082A1, “TREATMENT OF DEMENTIA” (Macquarie University, priority 2019, published 2022) are described below.

SMILES strings stand for the structures.

For one experiment, the target named is T1, LIMK1 (Homo sapiens, UniProt P53667).
T1 construct: purchased Promega
Kind of experiment: LIMK1 activity assay (commercial, Promega). Type of experiment: biochemical. Conditions: in vitro; LIMKi at 100 μm, 10 μm, 1 μm, 0.1 μm; DMSO did not inhibit. The source says:
LIMK1 activity assay. LIMK1 activity in the absence or presence of different concentrations of LIMKi (or DMSO) was determine with a commercial assay following the manufacturer's instructions (Promega).

For experiment [1], the system named is C57B^1/6 primary mouse neurons. As to the kind of experiment: Aβ toxicity in cultured primary neurons (dendritic spine loss, cell viability). Type of experiment: cell-based. Conditions: pre-treatment, 0.05 μM oligomeric Aβ. As for the experimental part: C57B^1/6 primary mouse neurons were treated with Compound 1 shown below (also referred to herein as LIMKi) together with 0.05 μM oligomeric Aβ (oAβ ) and determined loss of dendritic spines and cell viability.
Aβ treated neurons presented with loss of spines and reduced viability. […] Next, the inventors determined the potential short-term effects of Compound 1 in vivo. […] Next, the inventors tested the effects of acute Compound 1 administration on neuronal network activity in APP23 mice. […] Furthermore, CFC 1 hour after Compound 1 administration was re-established (data not shown). […] Thus, inhibition of LIMK1 with Compound 1 conferred protection from Aβ toxicity in neurons and from excitotoxicity in vivo. Furthermore, treatment of APP23 with Compound 1 corrected network aberrations including CFC.

Another experiment deals with C57B^1/6 mice. Kind of experiment: PTZ-induced excitotoxic seizure model. The experiment is classed as in vivo, mouse. Conditions: for mean seizure severity: n=9. The procedure: (§1) FIG. 4. LIMK1 inhibition reduced susceptibility to induced seizures and mitigated neuronal network hypersynchronicity and memory deficits in a mouse model of Alzheimer's disease. (A) Excitotoxic seizures were induced by acute intraperitoneal injection of 50 mg/kg body weight pentylenetetrazole (PTZ) followed by timing and scoring (0=no seizures to 7=terminal status epilepticus) of seizure development. Mice were treated with vehicle or 10 mg/kg body weight LIMK1 inhibitor (LIMKi) intraperitoneally 30 minutes prior to seizure induction. […] Only vehicle-treated mice develop severe seizure stages over time (i.e. score=5). […] (B) Compound hippocampal electroencephalography (EEG) recordings over 4 hours in non-transgenic (wt) and APP transgenic (APP23) mice including 2 hours before (Pre) and 2 hours after (Post) LIMKi or vehicle administration. Time of intraperitoneal LIMKi and vehicle administration is indicated with an arrow. […] Frequent spikes pre and post vehicle administration in APP23 mice. In contrast, LIMKi injection mitigates spike activity in APP23 post injection. […] (E) Chronic Limkl inhibition reverts memory deficits in AD mice. APP23 mice develop memory deficits in the Morris water maze (MWM) paradigm at 3 months of age. Treatment with 10 mg/kg LIMKi i.p. (3-4 times per week) was initiated at 3 months of age and continued for =4 months before MWM testing at 7 months of age. […] For bar graphs in (C) and (E), from left to right: non-Tg +vehicle; non-Tg+LIMKi; APP23+vehicle; APP23+LIMKi.
Seizure model. Excitotoxic seizure were induced in mice by intraperitoneal injection of 50 mg/kg body weight pentylenetetrazole followed by observation in a square area (40×40 cm). Scoring of seizures was done as previously described (Ittner et al., 2010, Cell 142, 387-397). For LIMKi-treated mice, scoring was adjusted by combining the severe seizure scores 5 to 7 into a single score of 5. For both scales, minor to moderate seizures are reflected by scores <5.

In experiment [2] the test system is APP23 mice. As to the kind of experiment: Hippocampal telemetric EEG recordings (spikes, cross frequency coupling). Type of experiment: in vivo, mouse. Conditions: for amplitude phase in EEG recordings / modulation index of cross frequency coupling / spike frequency / hypersynchronous discharges in EEG: n=8; for spike frequency / hypersynchronous discharges in EEG: i.p., 2 hours pre vs 2 hours post administration. As for the experimental part: as §1
Electroencephalography. Hippocampal EEG recordings were done with implanted telemetric electrodes (D.S.I.) as previously described (Ittner et al., 2014, Acta neuropathologica communications 2, 149). All recordings were done with mice individually housed in their home cages one week after implantation of transmitters. Compound administration was done intraperitoneally during transient restraining of mice. Vehicle for the LIMK1 inhibitor LIMKi contained hydroxypropyl methylcellulose 606 (HPMC 606) with polyvinylpyrrolidone k17 (PVP k17) and tween 80 in a proportion of 0.5%, 0.5%, 0.1%, respectively. Spike analysis was done with the Neuroscore software module (D.S.I.) as previously described (Ittner et al., 2016, Science 354, 904-908). Cross frequency coupling of theta and gamma waves was performed as previously described (Ittner et al., 2016, Science 354, 904-908).

Experiment [3] relates to APP23 mice. Kind of experiment: Morris water maze memory testing after chronic treatment. Type of experiment: in vivo, mouse. The procedure: as §1
Memory testing. Memory of mice was assessed in the water T maze paradigm and Morris water maze following published protocols (Ittner et al., 2010, Cell 142, 387-397; Ke et al., 2015, Acta Neuropathol 130, 661-678). Chronic treatment of mice was done by 3-4 times per week intraperitoneal injection of 10 mg/kg LIMKi or vehicle (0.5% hydroxypropyl methylcellulose 606 (HPMC 606), 0.5% polyvinylpyrrolidone k17 (PVP k17) and 0.1% tween 80) starting at 3 months of age and continued until 7 months of age. All mice were acclimatized to the test rooms prior to testing.
Encouraged by the short-term effects of Compound 1 in neurons and APP23 mice (Example 3), the inventors tested whether long-term treatment could improve memory deficits in APP23 mice. 3-month old APP23 mice were treated for four months before being subjected to memory testing in the MWM. APP23 mice present with significant memory deficits at 3 months of age, that progress with age (Ittner et al., 2016, Science 354:904-908). An intermittent treatment schedule was chosen to avoid potential inhibition of astrocyte-mediated AP clearance that could mask therapeutic effects. At 7 months of age, vehicle-treated APP23 mice presented with significant memory deficits as compared to vehicle-treated non-transgenic mice (FIG. 4E).

[4] abbreviates: 10 mg/kg i.p. 30 minutes prior to 50 mg/kg PTZ, vs vehicle.
The mark [5] stands for this setting: APP23 mice, 1 hour after administration.
The mark [6] stands for this setting: APP23 mice, 1 hour after administration, listed as LIMKi.

T1 sequence (P53667 whole entry): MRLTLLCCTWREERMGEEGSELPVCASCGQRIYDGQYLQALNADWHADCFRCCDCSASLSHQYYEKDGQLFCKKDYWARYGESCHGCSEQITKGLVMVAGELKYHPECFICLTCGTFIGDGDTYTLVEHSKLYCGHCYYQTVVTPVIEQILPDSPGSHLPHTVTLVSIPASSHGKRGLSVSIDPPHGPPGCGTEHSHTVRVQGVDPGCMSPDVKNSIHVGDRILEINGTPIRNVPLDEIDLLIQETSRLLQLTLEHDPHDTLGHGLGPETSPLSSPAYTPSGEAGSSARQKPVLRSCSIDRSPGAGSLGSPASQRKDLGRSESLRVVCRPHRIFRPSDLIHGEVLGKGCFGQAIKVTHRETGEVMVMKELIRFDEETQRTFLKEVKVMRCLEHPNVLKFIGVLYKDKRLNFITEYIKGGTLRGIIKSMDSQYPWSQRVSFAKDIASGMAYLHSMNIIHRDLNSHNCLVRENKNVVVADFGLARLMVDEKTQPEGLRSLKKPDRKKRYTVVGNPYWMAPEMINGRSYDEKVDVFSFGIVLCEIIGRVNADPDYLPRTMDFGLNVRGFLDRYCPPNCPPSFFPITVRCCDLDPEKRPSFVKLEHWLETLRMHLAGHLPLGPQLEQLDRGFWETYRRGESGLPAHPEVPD

For the compound `Cc1c[nH]c2ncnc(N3CCN(/C(=N\C#N)Nc4cccc(Br)c4)[C@@H](C)C3)c12` [Compound 1], the LIMK1 activity entry on LIMK1 is reported as “inhibition of the kinase by LIMKi at all concentrations tested”. In addition, in experiment [1], the “Aβ-induced death of cultured neurons (cell viability)” value was “dose-dependent protection”. For the same compound, the “Aβ-induced dendritic spine loss” value in experiment [1] was “dose-dependent protection”. In addition, the “latency to develop severe seizures” value in the experiment on C57B^1/6 mice (10 mg/kg 30 minutes prior to PTZ, C57B1/6 mice) is reported as “increased the latency to develop severe seizures”. Moreover, the “latency to develop lower grade seizures (score<5)” value in the experiment with C57B^1/6 mice (setting [4]) is listed as “Delayed latency to develop lower grade seizures”. The mean seizure severity result in the experiment with C57B^1/6 mice (setting [4]) was “significantly reduced mean seizure severity”; in the experiment on C57B^1/6 mice (10 mg/kg i.p. 30 minutes prior to 50 mg/kg PTZ, vs vehicle, listed as LIMKi) it was “Significantly reduced seizure severity”. Further, in the experiment with APP23 mice [2] (APP23 mice, 1 hour after administration, data not shown), the “cross frequency coupling (CFC)” value was “re-established”. In addition, the “amplitude phase in EEG recordings” value with APP23 mice [2] (setting [5]) is “normalized”; in the experiment on APP23 mice [2] (setting [6]) it was “corrected 1 hour after LIMKi delivery and no longer different from wt controls”. Also, the “modulation index of cross frequency coupling” value was “normalized” with APP23 mice [2] (setting [5]); “corrected 1 hours after LIMKi administration and no longer different from wt controls” in the experiment with APP23 mice [2] (setting [6]). In addition, the “spike frequency / hypersynchronous discharges in EEG” value in the experiment with APP23 mice [2] (APP23 mice) was “hypersynchronicity significantly decreased”; in the experiment on APP23 mice [2] (APP23 mice, listed as LIMKi), “significantly reduced spike frequency”. The “spike activity in EEG” value in the experiment on APP23 mice [2] (non-transgenic (wt) mice, pre and post injection) is given as “No overt spike activity”. Further, the “time in target quadrant during MWM probe trials” value in the experiment on APP23 mice [3] (APP23 mice, 10 mg/kg i.p. 3-4 times per week for 4 months, n=8-10) was “no significant differences to controls”. The “learning in Morris water maze” value in the experiment with APP23 mice [3] (APP23 mice, 10 mg/kg i.p. 3-4 times per week from 3 to 7 months of age) is listed as “improved learning of APP23 mice to vehicle control levels”; in the experiment on APP23 mice [3] (non-transgenic control mice, 10 mg/kg i.p. 3-4 times per week for 4 months, 10 mg/kg), “delayed learning”; in the experiment with APP23 mice [3] (non-transgenic control mice, 10 mg/kg i.p. 3-4 times per week for 4 months, listed as LIMKi, 10 mg/kg), “moderately delayed learning”. In addition, the “memory performance in MWM” value with APP23 mice [3] (APP23 mice, after four months of treatment, tested at 7 months of age) was “improved memory performance”.
